Assay results from the supplement of paper PMC10307832.

Tests used:
Test in all cases: relative viability (nuclei count vs DMSO), 5 days (fraction); higher = more cells survive
Palbociclib + Olaparib = compound: CC(=O)c1c(C)c2cnc(Nc3ccc(N4CCNCC4)cn3)nc2n(C2CCCC2)c1=O [Palbociclib] + O=C(c1cc(Cc2n[nH]c(=O)c3ccccc23)ccc1F)N1CCN(C(=O)C2CC2)CC1 [Olaparib] (partner 8 µM)
Procedure, shortened: (§1)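 Five library-drug doses in √10 steps were combined with a fixed anchor-drug dose, or a single drug was given alone, by pin tool to lung cancer cell lines in 1536-well plates the day after seeding. Nuclei were stained and counted after 5 days. Relative viability is the nuclei count in treated wells over that in vehicle wells, taken as the median of duplicate plates.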

Palbociclib + Crizotinib = compound: CC(=O)c1c(C)c2cnc(Nc3ccc(N4CCNCC4)cn3)nc2n(C2CCCC2)c1=O [Palbociclib] + C[C@@H](Oc1cc(-c2cnn(C3CCNCC3)c2)cnc1N)c1c(Cl)ccc(F)c1Cl [Crizotinib] (partner 1 µM)
Procedure, shortened: as §1

Palbociclib = compound: CC(=O)c1c(C)c2cnc(Nc3ccc(N4CCNCC4)cn3)nc2n(C2CCCC2)c1=O [Palbociclib]
Procedure, shortened: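 Viability was defined as treated-well nuclei divided by vehicle-well nuclei, with the median taken over replicate plates. Cells from lung cancer lines sat overnight at 37 °C in 1536-well plates, received five √10-spaced library-drug doses by pinning on vehicle-anchored plates, and grew 5 days without medium change before one-step fixation, permeabilisation and Hoechst staining, 4× imaging and MetaXpress nuclear counts. Only plates with control CV under 25% and at least one doubling were kept.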

Cell Line | relative viability (Palbociclib + Olaparib; first compound 0.01 µM) | relative viability (Palbociclib + Olaparib; first compound 0.1 µM) | relative viability (Palbociclib + Olaparib; first compound 0.3162 µM) | relative viability (Palbociclib + Olaparib; first compound 1 µM) | relative viability (Palbociclib + Crizotinib; first compound 0.01 µM) | relative viability (Palbociclib + Crizotinib; first compound 0.1 µM) | relative viability (Palbociclib + Crizotinib; first compound 0.3162 µM) | relative viability (Palbociclib + Crizotinib; first compound 1 µM) | relative viability (Palbociclib; 0.01 µM) | relative viability (Palbociclib; 0.1 µM) | relative viability (Palbociclib; 0.3162 µM) | relative viability (Palbociclib; 0.5 µM, anchor plate) | relative viability (Palbociclib; 1 µM) | relative viability (Palbociclib + Olaparib; first compound 0.03162 µM) | relative viability (Palbociclib + Crizotinib; first compound 0.03162 µM) | relative viability (Palbociclib; 0.03162 µM)
NCI-H650 | 0.44 | 0.318 | 0.354 | 0.246 | 0.619 | 0.446 | 0.58 | 0.475 | 0.971 | 0.711 | 0.794 | 0.327 | 0.516 |  |  | 
NCI-H661 | 0.731 | 0.583 | 0.467 | 0.44 | 0.957 | 0.674 | 0.694 | 0.556 | 0.968 | 0.765 | 0.611 | 0.415 | 0.455 | 0.636 | 0.779 | 0.862
NCI-H727 | 0.738 | 0.699 | 0.728 | 0.568 | 0.78 | 0.45 | 0.41 | 0.404 | 0.814 | 0.653 | 0.659 | 0.625 | 0.564 | 0.728 | 0.642 | 0.786
NCI-H838 | 0.812 | 0.605 | 0.46 | 0.263 | 0.795 | 0.645 | 0.551 | 0.413 | 1.06 | 0.761 | 0.816 | 0.232 | 0.353 | 0.64 | 0.808 | 0.833
NCI-H1299 | 0.925 | 0.886 | 0.79 | 0.65 | 0.938 | 0.86 | 0.7 | 0.631 | 0.981 | 0.906 | 0.839 |  | 0.729 | 0.924 | 0.895 | 0.977
NCI-H1355 | 0.796 | 0.673 | 0.65 | 0.621 | 1.13 | 0.886 | 0.875 | 0.682 | 0.999 | 0.884 | 0.844 | 0.427 | 0.62 | 0.734 |  | 0.672
NCI-H1437 | 0.64 | 0.564 | 0.489 | 0.369 | 1.05 | 0.807 | 0.782 | 0.506 | 1.02 | 0.863 | 0.823 | 0.311 | 0.571 | 0.599 | 0.855 | 0.877
NCI-H1650 | 0.795 | 0.551 | 0.642 | 0.513 | 0.957 | 0.776 | 0.684 | 0.548 | 0.928 | 0.77 | 0.726 | 0.359 | 0.487 | 0.562 | 0.724 | 0.734
NCI-H1651 | 0.177 | 0.225 | 0.203 | 0.206 | 0.895 | 0.869 | 0.808 | 0.79 | 0.967 | 0.986 | 0.971 | 0.537 | 0.772 | 0.196 | 0.864 | 0.971
NCI-H1666 | 0.769 | 0.705 | 0.664 | 0.708 | 1.09 | 0.632 | 0.552 | 0.621 | 1 | 0.873 | 0.836 | 0.632 | 0.582 | 0.708 | 0.895 | 0.86
NCI-H1703 | 0.417 | 0.293 | 0.199 | 0.203 | 0.845 | 0.513 | 0.505 | 0.227 | 0.912 | 0.842 | 0.444 |  | 0.345 | 0.339 |  | 0.676
NCI-H1734 | 0.616 | 0.566 | 0.494 | 0.407 | 0.685 | 0.52 | 0.499 | 0.398 | 0.951 | 0.75 | 0.659 | 0.345 | 0.538 | 0.596 | 0.622 | 0.592
NCI-H1755 | 0.875 | 0.812 | 0.788 | 0.664 | 0.927 | 0.707 | 0.706 | 0.539 | 1.03 | 0.915 | 0.845 | 0.443 | 0.664 | 0.841 | 0.889 | 0.896
NCI-H1792 | 0.476 | 0.384 | 0.348 | 0.222 | 0.972 | 0.906 | 0.868 | 0.634 | 0.987 | 0.696 | 0.612 | 0.678 | 0.383 | 0.266 | 0.897 | 0.8
NCI-H1915 | 0.244 | 0.257 | 0.258 | 0.244 | 0.89 | 0.879 | 0.856 | 0.796 | 1.01 | 0.973 | 0.902 | 0.527 | 0.756 |  | 0.863 | 0.695
NCI-H1944 | 0.411 | 0.404 | 0.341 | 0.339 | 1.01 | 0.904 | 0.98 | 0.851 | 0.971 | 0.886 | 0.885 | 0.345 | 0.532 | 0.397 | 0.969 | 0.762
NCI-H1975 | 0.859 | 0.737 | 0.623 | 0.61 | 0.979 | 0.869 | 0.763 | 0.758 | 0.923 | 0.924 | 0.865 | 0.593 | 0.793 | 0.762 | 0.861 | 0.949
NCI-H1993 | 1.14 | 0.945 | 0.846 | 0.703 | 0.806 | 0.718 | 0.617 | 0.625 | 1.05 | 0.726 | 0.69 | 0.658 | 0.67 | 0.907 | 0.757 | 0.882
